Source: patent US11000033B2, “Ketone or oxime compound, and herbicide” (NISSAN CHEMICAL CORPORATION, priority 2014, dated 2021)

Key:
Format in all cases: in vivo
[1] = test system: Echinochloa oryzacola Vasing.; assay: Test Example 2: herbicidal activity, application during weed generation in submerged conditions (symbol A); conditions: Table 23; application herbicide amount 320 g/ha; grade 0-5 by criteria of Test Example 1
How it was run: (§1)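 Read-out: herbicidal effect on each species rated on a visual scale 3 weeks after treatment. Plants were raised together from seed in flooded alluvial soil (4 cm water) at 25° C. to 30° C. and treated at one to two leaves by water-surface application of diluted emulsion.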

Scirpus juncoides = assay: Test Example 2: herbicidal activity, application during weed generation in submerged conditions (symbol B); conditions: Table 23; application herbicide amount 320 g/ha; grade 0-5 by criteria of Test Example 1
How it was run: as §1

[2] = test system: directly sowed rice plant; assay: Test Example 3: effect on crop by foliage application, Wagner pot (symbol b); conditions: application herbicide amount 320 g/ha
How it was run: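 Alluvial soil in a 1/10000-are Wagner pot was flooded to a water depth of 0.1–0.5 cm. Echinochloa crus-galli var. crus-galli, Leptochloa chinensis, Cyperus difformis and rice were sown into it and grown in a greenhouse at 25–30 °C.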

Avena fatua = assay: Test Example 4: herbicidal effect by soil treatment (symbol I); conditions: application herbicide amount 320 g/ha
How it was run: (§2)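 Seeds were sown in sterilized diluvial soil, covered with about 1.5 cm of soil, and the soil surface was sprayed with a water-diluted emulsion of the compound at a predetermined rate. Plants grew in a greenhouse at 25° C. to 30° C.; effects were scored visually 3 weeks after application.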

Lolium multiflorum Lam. = assay: Test Example 4: herbicidal effect by soil treatment (symbol K); conditions: application herbicide amount 320 g/ha
How it was run: as §2

Apera spica-venti = assay: Test Example 4: herbicidal effect by soil treatment (symbol L); conditions: application herbicide amount 320 g/ha
How it was run: as §2

Amaranthus retroflexus = assay: Test Example 4: herbicidal effect by soil treatment (symbol N); conditions: application herbicide amount 320 g/ha
How it was run: as §2

soybean = assay: Test Example 4: effect on crop by soil treatment (symbol d); conditions: application herbicide amount 320 g/ha
How it was run: (§3)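 Seeds were sown in spots on sterilized diluvial soil in a plastic box and covered with about 1.5 cm of soil. Plants were then grown in a greenhouse at 25° C. to 30° C.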

rice = assay: Test Example 4: effect on crop by soil treatment (symbol b); conditions: application herbicide amount 320 g/ha
How it was run: as §3

wheat [3] = assay: Test Example 4: effect on crop by soil treatment (symbol e); conditions: application herbicide amount 320 g/ha
How it was run: as §3

rapeseed [4] = assay: Test Example 4: effect on crop by soil treatment (symbol g); conditions: application herbicide amount 320 g/ha
How it was run: as §3

Abutilon theophrasti = assay: Test Example 5: herbicidal effect by foliage application, plastic box (symbol M); conditions: 320 g/ha, 3 weeks after application
How it was run: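 Seeds were sown in sterilized diluvial soil, covered with about 1.5 cm of soil and grown 14 days in a greenhouse at 25° C. to 30° C. An emulsifiable formulation diluted in water to a set rate was sprayed over foliage, and injury was scored 3 weeks later.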

rice plant = assay: Test Example 5: effect on crop by foliage application, plastic box (symbol b); conditions: 320 g/ha, 3 weeks after application
How it was run: (§4)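 Greenhouse culture at 25° C. to 30° C. followed spot-like sowing into sterilized diluvial soil, with seed covered by roughly 1.5 cm of soil.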

wheat [5] = assay: Test Example 5: effect on crop by foliage application, plastic box (symbol e); conditions: 320 g/ha, 3 weeks after application
How it was run: as §4

beet = assay: Test Example 5: effect on crop by foliage application, plastic box (symbol f); conditions: 320 g/ha, 3 weeks after application
How it was run: as §4

rapeseed [6] = assay: Test Example 5: effect on crop by foliage application, plastic box (symbol g); conditions: 320 g/ha, 3 weeks after application
How it was run: as §4

Row | SMILES | Herbicidal effect grade, A: Echinochloa oryzacola Vasing. [1] | Herbicidal effect grade, B: Scirpus juncoides (Scirpus juncoides) | effect on crop b (directly sowed rice plant), grade 0-5 [2] | Herbicidal effect grade, I: Avena fatua (Avena fatua) | Herbicidal effect grade, K: Lolium multiflorum Lam. (Lolium multiflorum Lam.) | Herbicidal effect grade, L: Apera spica-venti (Apera spica-venti) | Herbicidal effect grade, N: Amaranthus retroflexus (Amaranthus retroflexus) | Effect on crop grade, d: soybean (soybean) | Effect on crop grade, b: directly sowed rice plant (rice) | Effect on crop grade, e: wheat (wheat [3]) | Effect on crop grade, g: rapeseed (rapeseed [4]) | M: Abutilon theophrasti, herbicidal effect (criteria of Test Example 1) (Abutilon theophrasti) | b: directly sowed rice plant, effect on crop (criteria of Test Example 1) (rice plant) | e: wheat, effect on crop (criteria of Test Example 1) (wheat [5]) | f: beet, effect on crop (criteria of Test Example 1) (beet) | g: rapeseed, effect on crop (criteria of Test Example 1) (rapeseed [6])
1 | CON=C(C)CC1CC(OC(=O)COc2ccccc2)=C(c2c(C)cc(-c3ccccc3)cc2OC)C1=O (stereo not shown) [6-100] | 5 (Herbicidal ratio of 90% or more (almost completely withered)) | 5 (Herbicidal ratio of 90% or more (almost completely withered)) | 5 (Herbicidal ratio of 90% or more (almost completely withered)) | 5 (Herbicidal ratio of 90% or more (almost completely withered)) | 5 (Herbicidal ratio of 90% or more (almost completely withered)) | 5 (Herbicidal ratio of 90% or more (almost completely withered)) | 5 (Herbicidal ratio of 90% or more (almost completely withered)) | 0 (Herbicidal ratio of 5% or lower (almost no effect)) | 5 (Herbicidal ratio of 90% or more (almost completely withered)) | 3 (Herbicidal ratio of 40% or higher and lower than 70%) | 5 (Herbicidal ratio of 90% or more (almost completely withered)) | 3 (Herbicidal ratio of 40% or higher and lower than 70%) | 5 (Herbicidal ratio of 90% or more (almost completely withered)) | 5 (Herbicidal ratio of 90% or more (almost completely withered)) | 0 (Herbicidal ratio of 5% or lower (almost no effect)) | 5 (Herbicidal ratio of 90% or more (almost completely withered))
2 | CON=C(C)CC1CC(O)=C(c2c(OC)cc(C)cc2OC)C1=O (stereo not shown) [6-103] | 5 (Herbicidal ratio of 90% or more (almost completely withered)) | 0 (Herbicidal ratio of 5% or lower (almost no effect)) | 5 (Herbicidal ratio of 90% or more (almost completely withered)) | 5 (Herbicidal ratio of 90% or more (almost completely withered)) | 5 (Herbicidal ratio of 90% or more (almost completely withered)) | 5 (Herbicidal ratio of 90% or more (almost completely withered)) | 0 (Herbicidal ratio of 5% or lower (almost no effect)) | 0 (Herbicidal ratio of 5% or lower (almost no effect)) | 5 (Herbicidal ratio of 90% or more (almost completely withered)) | 5 (Herbicidal ratio of 90% or more (almost completely withered)) | 0 (Herbicidal ratio of 5% or lower (almost no effect)) | 2 (Herbicidal ratio of 20% or higher and lower than 40%) | 5 (Herbicidal ratio of 90% or more (almost completely withered)) | 5 (Herbicidal ratio of 90% or more (almost completely withered)) | 0 (Herbicidal ratio of 5% or lower (almost no effect)) | 4 (Herbicidal ratio of 70% or higher and lower than 90%)
3 | CON=C(C)CC1CC(O)=C(c2c(C)cc(-c3cc(F)c(F)c(F)c3)cc2C)C1=O (stereo not shown) [6-104] | 5 (Herbicidal ratio of 90% or more (almost completely withered)) | 5 (Herbicidal ratio of 90% or more (almost completely withered)) | 5 (Herbicidal ratio of 90% or more (almost completely withered)) | 4 (Herbicidal ratio of 70% or higher and lower than 90%) | 1 (Herbicidal ratio of 5% or higher and lower than 20%) | 5 (Herbicidal ratio of 90% or more (almost completely withered)) | 5 (Herbicidal ratio of 90% or more (almost completely withered)) | 0 (Herbicidal ratio of 5% or lower (almost no effect)) | 5 (Herbicidal ratio of 90% or more (almost completely withered)) | 5 (Herbicidal ratio of 90% or more (almost completely withered)) | 4 (Herbicidal ratio of 70% or higher and lower than 90%) | 5 (Herbicidal ratio of 90% or more (almost completely withered)) | 5 (Herbicidal ratio of 90% or more (almost completely withered)) | 5 (Herbicidal ratio of 90% or more (almost completely withered)) | 4 (Herbicidal ratio of 70% or higher and lower than 90%) | 4 (Herbicidal ratio of 70% or higher and lower than 90%)
4 | CCc1cc(Br)cc(C)c1C1=C(O)CC(C(C(C)=O)C(=O)OC)C1=O (stereo not shown) [7-001] | 0 (Herbicidal ratio of 5% or lower (almost no effect)) | 0 (Herbicidal ratio of 5% or lower (almost no effect)) | 2 (Herbicidal ratio of 20% or higher and lower than 40%) | 3 (Herbicidal ratio of 40% or higher and lower than 70%) | 5 (Herbicidal ratio of 90% or more (almost completely withered)) | 0 (Herbicidal ratio of 5% or lower (almost no effect)) | 0 (Herbicidal ratio of 5% or lower (almost no effect)) | 0 (Herbicidal ratio of 5% or lower (almost no effect)) | 4 (Herbicidal ratio of 70% or higher and lower than 90%) | 0 (Herbicidal ratio of 5% or lower (almost no effect)) | 0 (Herbicidal ratio of 5% or lower (almost no effect)) | 0 (Herbicidal ratio of 5% or lower (almost no effect)) | 1 (Herbicidal ratio of 5% or higher and lower than 20%) | 0 (Herbicidal ratio of 5% or lower (almost no effect)) | 0 (Herbicidal ratio of 5% or lower (almost no effect)) | 0 (Herbicidal ratio of 5% or lower (almost no effect))
